Drawing on PubChem BioAssay AID248 (DTP/NCI, 2004), this text covers T/C for 19 compounds.

Inconclusive results and toxic doses are left out.

In this assay the test system is L1210 leukemia ip in BDF1 mice, survival T/C. Briefly: NCI In Vivo Anticancer Drug Screen. Data for tumor model L1210 Leukemia (intraperitoneal) in B6D2F1 (BDF1) mice. The settings on record: endpoint: mean survival time, higher = longer survival. The method in brief:
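Ratio derived from survival: compound-dosed mice over vehicle-dosed mice, all bearing a transplantable tumor.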

[1] abbreviates: dose: 100.0 mg/kg/injection, schedule: Q04DX003 (ip), vehicle: Klucel (hydroxypropylcellulose) (HPC).
[2] abbreviates: dose: 200.0 mg/kg/injection, schedule: Q04DX003 (ip), vehicle: Klucel (hydroxypropylcellulose) (HPC).
The mark [3] stands for this setting: dose: 400.0 mg/kg/injection, schedule: Q04DX003 (ip), vehicle: Klucel (hydroxypropylcellulose) (HPC).
The mark [4] stands for this setting: dose: 100.0 mg/kg/injection, schedule: Q01DX009 (ip), vehicle: Klucel (hydroxypropylcellulose) (HPC).
The mark [5] stands for this setting: dose: 100.0 mg/kg/injection, schedule: Q04DX002 (ip), vehicle: Klucel (hydroxypropylcellulose) (HPC).
Setting [6] is: dose: 200.0 mg/kg/injection, schedule: Q01DX009 (ip), vehicle: Klucel (hydroxypropylcellulose) (HPC).
Where [7] appears, read: dose: 200.0 mg/kg/injection, schedule: Q04DX002 (ip), vehicle: Klucel (hydroxypropylcellulose) (HPC).
Setting [8] is: dose: 400.0 mg/kg/injection, schedule: Q01DX009 (ip), vehicle: Klucel (hydroxypropylcellulose) (HPC).
Where [9] appears, read: dose: 400.0 mg/kg/injection, schedule: Q04DX002 (ip), vehicle: Klucel (hydroxypropylcellulose) (HPC).
The mark [10] stands for this setting: dose: 100.0 mg/kg/injection, schedule: Q01DX009 (ip), vehicle: saline with Tween-80.
[11] abbreviates: dose: 100.0 mg/kg/injection, schedule: Q01DX001 (ip), vehicle: saline.
Setting [12] is: dose: 100.0 mg/kg/injection, schedule: Q04DX003 (ip), vehicle: saline.
[13] abbreviates: dose: 200.0 mg/kg/injection, schedule: Q04DX003 (ip), vehicle: saline.
Where [14] appears, read: dose: 400.0 mg/kg/injection, schedule: Q04DX003 (ip), vehicle: saline.

For `Cc1cc(N(CCCCl)CCCCl)ccc1C=Nc1cccc(Cl)c1`, the T/C by setting is: under setting [1], 101 % of control; under setting [2], 101 % of control; under setting [3], 96 % of control.

Consider `CC(C)(C)C(=O)CC(=O)C(C)(C)C.CC(C)(C)C(=O)CC(=O)C(C)(C)C.CC(C)(C)C(=O)CC(=O)C(C)(C)C.[Yb]`, for which the T/C (dose: 100.0 mg/kg/injection, schedule: Q01DX005 (ip), vehicle: Klucel (hydroxypropylcellulose) (HPC)) is 97 % of control; the T/C under setting [4] is 97 % of control; the T/C under setting [5] is 96 % of control; the T/C (dose: 200.0 mg/kg/injection, schedule: Q01DX005 (ip), vehicle: Klucel (hydroxypropylcellulose) (HPC)) is 105 % of control; the T/C under setting [6] was 97 % of control; the T/C under setting [7] was 107 % of control. In addition, the T/C is 101 % of control (dose: 400.0 mg/kg/injection, schedule: Q01DX005 (ip), vehicle: Klucel (hydroxypropylcellulose) (HPC)); 97 % of control under setting [8]; 96 % of control under setting [9].

`CCOC(=O)c1cnc(SCc2ccccc2)[nH]c1=O`: the T/C runs as follows: under setting [10], 101 % of control; (dose: 200.0 mg/kg/injection, schedule: Q01DX009 (ip), vehicle: saline with Tween-80) 91 % of control; (dose: 400.0 mg/kg/injection, schedule: Q01DX009 (ip), vehicle: saline with Tween-80) 92 % of control.

`CCOC(=O)C(CCSC)(CCN(C)Cc1ccccc1)C(=O)OCC`: the T/C is 102 % of control (dose: 5.0 mg/kg/injection, schedule: Q01DX001 (ip), vehicle: saline); 96 % of control (dose: 10.0 mg/kg/injection, schedule: Q01DX001 (ip), vehicle: saline); 96 % of control (dose: 20.0 mg/kg/injection, schedule: Q01DX001 (ip), vehicle: saline); 94 % of control (dose: 40.0 mg/kg/injection, schedule: Q01DX001 (ip), vehicle: saline); 94 % of control (dose: 80.0 mg/kg/injection, schedule: Q01DX001 (ip), vehicle: saline); 100 % of control under setting [11].

Turning to `Cc1ccc(S(=O)(=O)N/N=C(\CSc2ccc(N(C)C)cc2)c2ccccc2)cc1`, the T/C was 105 % of control (dose: 50.0 mg/kg/injection, schedule: Q04DX002 (ip), vehicle: saline with Tween-80); 86 % of control (dose: 100.0 mg/kg/injection, schedule: Q04DX002 (ip), vehicle: saline with Tween-80); 97 % of control (dose: 200.0 mg/kg/injection, schedule: Q04DX002 (ip), vehicle: saline with Tween-80); 90 % of control (dose: 400.0 mg/kg/injection, schedule: Q04DX002 (ip), vehicle: saline with Tween-80).

In the case of `C=C1C(=O)OC2C3=C(C)C(=O)CC3C3(C)CC3C12` (stereo not drawn), under “dose: 50.0 mg/kg/injection, schedule: Q01DX001 (ip), vehicle: water”, the T/C was 103 % of control.

Take `CC1(C(=O)O)C2CCC(C2)C1C(=O)O` (stereo not drawn): the T/C is 107 % of control under setting [12], 102 % of control under setting [13] and 105 % of control under setting [14].

Consider `CC[C@@]1(O)c2cc3n(c(=O)c2CO[C@H]1O)Cc1cc2ccccc2nc1-3`, for which the T/C by setting is: (dose: 0.5 mg/kg/injection, schedule: Q01DX Z (ip), vehicle: saline) 96 % of control; (dose: 1.0 mg/kg/injection, schedule: Q01DX Z (ip), vehicle: saline) 94 % of control; (dose: 2.0 mg/kg/injection, schedule: Q01DX Z (ip), vehicle: saline) 97 % of control; (dose: 4.0 mg/kg/injection, schedule: Q01DX015 (ip), vehicle: saline) 104 % of control; (dose: 4.0 mg/kg/injection, schedule: Q01DX Z (ip), vehicle: saline) 97 % of control; (dose: 8.0 mg/kg/injection, schedule: Q01DX007 (ip), vehicle: other) 108 % of control. Further, the T/C is 95 % of control (dose: 8.0 mg/kg/injection, schedule: Q01DX012 (ip), vehicle: saline); 106 % of control (dose: 8.0 mg/kg/injection, schedule: Q01DX015 (ip), vehicle: saline); 112 % of control (dose: 16.0 mg/kg/injection, schedule: Q01DX007 (ip), vehicle: other); 108 % of control (dose: 16.0 mg/kg/injection, schedule: Q01DX012 (ip), vehicle: saline); 150 % of control (dose: 16.0 mg/kg/injection, schedule: Q01DX015 (ip), vehicle: saline).

Consider `CCOC(=O)C1CC=CCC1C(=O)OCC` (stereo not drawn), for which the T/C (dose: 50.0 mg/kg/injection, schedule: Q01DX009 (ip), vehicle: Klucel (hydroxypropylcellulose) (HPC)) is 105 % of control; the T/C (dose: 75.0 mg/kg/injection, schedule: Q01DX009 (ip), vehicle: Klucel (hydroxypropylcellulose) (HPC)) was 108 % of control; the T/C (dose: 150.0 mg/kg/injection, schedule: Q01DX009 (ip), vehicle: Klucel (hydroxypropylcellulose) (HPC)) is 112 % of control.

For the compound `C#CCOCCCC(=O)O`, the T/C is, setting by setting: (dose: 100.0 mg/kg/injection, schedule: Q01DX009 (ip), vehicle: saline) 91 % of control; (dose: 200.0 mg/kg/injection, schedule: Q01DX009 (ip), vehicle: saline) 89 % of control.

As to `CCCC(C(=O)OCC)C(=O)c1ccccc1` (stereo not drawn), the T/C under setting [1] is 95 % of control, the T/C under setting [2] was 98 % of control and the T/C under setting [3] is 92 % of control.

In the case of `Cc1cccc(C)c1OC(=O)NCCCCCCNC(=O)Oc1c(C)cccc1C`, the T/C under setting [4] was 102 % of control, the T/C under setting [6] is 92 % of control and the T/C under setting [8] is 92 % of control.

As for `COc1ccc(Nc2ccnc3cc(Cl)ccc23)cc1CN(CCCl)C(C)CCl` (stereo not drawn), the T/C is 113 % of control (dose: 25.0 mg/kg/injection, schedule: Q01DX001 (ip), vehicle: carboxymethylcellulose (CMC)); 107 % of control (dose: 50.0 mg/kg/injection, schedule: Q01DX001 (ip), vehicle: carboxymethylcellulose (CMC)); 103 % of control (dose: 100.0 mg/kg/injection, schedule: Q01DX001 (ip), vehicle: carboxymethylcellulose (CMC)).

For the compound `Cn1nc2ccccc2n1`, the T/C reads like this: (dose: 25.0 mg/kg/injection, schedule: Q01DX009 (ip), vehicle: saline with Tween-80) 97 % of control; (dose: 50.0 mg/kg/injection, schedule: Q01DX009 (ip), vehicle: saline with Tween-80) 106 % of control; under setting [10], 100 % of control; (dose: 100.0 mg/kg/injection, schedule: Q04DX003 (ip), vehicle: saline with Tween-80) 116 % of control.

As for `[O-][n+]1cc(-c2ccccc2)cc2ccccc21`, the T/C under setting [11] was 96 % of control.

Consider `N#Cc1ncc(C(Cl)Cl)nc1Cl`, for which the T/C by setting is: under setting [12], 101 % of control; under setting [13], 92 % of control.

With `Nc1ncnc2c1ncn2C1OC(CO)C(O)C1O.[Cl][Pt][Cl]` (stereo not drawn), the T/C runs as follows: (dose: 100.0 mg/kg/injection, schedule: Q01DX009 (ip), vehicle: water) 97 % of control; (dose: 100.0 mg/kg/injection, schedule: Q04DX003 (ip), vehicle: water) 94 % of control; (dose: 200.0 mg/kg/injection, schedule: Q01DX009 (ip), vehicle: water) 103 % of control; (dose: 200.0 mg/kg/injection, schedule: Q04DX003 (ip), vehicle: water) 97 % of control; (dose: 400.0 mg/kg/injection, schedule: Q01DX009 (ip), vehicle: water) 100 % of control; (dose: 400.0 mg/kg/injection, schedule: Q04DX003 (ip), vehicle: water) 94 % of control.

Take `O=C1CCc2cc3c(cc21)OCO3`: the T/C is, setting by setting: under setting [12], 103 % of control; under setting [13], 96 % of control; under setting [14], 102 % of control.

As for `CCCCCCCCCCCCCCCCCCNC(=O)Nc1ccc(OC)cc1OC`, the T/C was 101 % of control under setting [5], 90 % of control under setting [7] and 90 % of control under setting [9].
